The values that follow come from patent publication US7732604B2, “Triazolopyrazine derivatives” (Pfizer Inc., priority 2006, dated 2010).

This test deals with T1, HGFR (Homo sapiens, UniProt P08581).
T1 construct: purchased Upstate 14-526
T1 sequence (P08581 974-1390 limits assumed): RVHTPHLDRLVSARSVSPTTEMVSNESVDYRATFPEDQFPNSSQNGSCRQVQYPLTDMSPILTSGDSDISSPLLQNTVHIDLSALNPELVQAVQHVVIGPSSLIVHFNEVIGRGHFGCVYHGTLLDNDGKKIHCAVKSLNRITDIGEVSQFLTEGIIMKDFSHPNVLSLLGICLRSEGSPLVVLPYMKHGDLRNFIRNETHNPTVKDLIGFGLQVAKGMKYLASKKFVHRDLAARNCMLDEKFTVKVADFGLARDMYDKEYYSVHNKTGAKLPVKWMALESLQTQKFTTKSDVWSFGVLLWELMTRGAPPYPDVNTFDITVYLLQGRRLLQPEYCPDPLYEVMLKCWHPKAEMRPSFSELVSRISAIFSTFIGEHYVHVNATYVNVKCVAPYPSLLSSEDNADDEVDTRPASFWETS
In words: HGFR continuous-coupled spectrophotometric assay (tyrosine kinase activity on Met-2 substrate peptide). Particulars: HGFR 50 nM, Met-2 peptide 0.5 mM, ATP 300 μM, 37° C., absorbance 340 nm; read-out: Ki. The test is classed as biochemical.
As to `c1cnc2ccc(Cn3nnc4ncc(NCc5cnn6cccnc56)nc43)cc2c1` [Example 122, N-(pyrazolo[15-a]pyrimi-din-3-yl-methyl)-1-(quino-lin-6-yl-methyl)-1H-[1,2,3]tri-azolo[4,5-b]pyra-zin-6-amine], the inhibition constant (Ki) (as a rule, the equilibrium dissociation constant of an inhibitor or competing ligand from its target) is 25 nM.

With `c1cnc2ccc(Cn3nnc4ncc(NC5CCOC5)nc43)cc2c1` (stereo not shown) [Example 123, 1-(quinolin-6-yl-methyl)-N-(tetra-hydrofuran-3-yl)-1H-[1,2,3]tri-azolo[4,5-b]pyra-zin-6-amine], the Ki was 8 nM.

As to `c1cnc2ccc(Cn3nnc4ncc(NCc5cc(C6CC6)[nH]n5)nc43)cc2c1` [Example 124, N-[(5-cyclo-propyl-1H-pyra-zol-3-yl)meth-yl]-1-(quino-lin-6-yl-methyl)-1H-[1,2,3]tri-azolo[4,5-b]pyra-zin-6-amine], the inhibition constant Ki stood at 35 nM.

As for `CNC(=O)CCNc1cnc2nnn(Cc3ccc4ncccc4c3)c2n1` [Example 125], the Ki stood at 15 nM.

As to `CC(=O)N1CC[C@@H](Nc2cnc3nnn(Cc4ccc5ncccc5c4)c3n2)C1` [Example 126, N-[(3R)-1-acetyl-pyrrolidin-3-yl]-1-(quino-lin-6-yl-methyl)-1H-[1,2,3]tri-azolo[4,5-b]pyra-zin-6-amine], the Ki was 16 nM.

As for `OC[C@@H]1C[C@H]1CNc1cnc2nnn(Cc3ccc4ncccc4c3)c2n1` [Example 127, [(1R,2R)-2-({[1-(quino-lin-6-yl-methyl)-1H-[1,2,3]tri-azolo[4,5-b]pyra-zin-6-yl]ami-no}methyl)cyclo-propyl]methanol], the Ki worked out at 40 nM.

Regarding `Cc1c(CNc2cnc3nnn(Cc4ccc5ncccc5c4)c3n2)cnn1C` [Example 128, N-[(15-di-methyl-1H-pyra-zol-4-yl)meth-yl]-1-(quino-lin-6-yl-methyl)-1H-[1,2,3]tri-azolo[4,5-b]pyra-zin-6-amine], the inhibition constant Ki was found to be 28 nM.

For the molecule `OC[C@H]1C[C@@H]1CNc1cnc2nnn(Cc3ccc4ncccc4c3)c2n1` [Example 129, [(1S,2S)-2-({[1-(quino-lin-6-yl-methyl)-1H-[1,2,3]tri-azolo[4,5-b]pyrazin-6-yl]ami-no}methyl)cyclo-propyl]methanol], the Ki is 13 nM.

In the case of `CC1(CNc2cnc3nnn(Cc4ccc5ncccc5c4)c3n2)COC1` [Example 130, N-[(3-methyl-oxetan-3-yl)meth-yl]-1-(quino-lin-6-yl-methyl)-1H-[1,2,3]tri-azolo[4,5-b]pyra-zin-6-amine], the inhibitory constant (Ki) worked out at 7 nM.

Consider `O[C@@H]1COC[C@H]1Nc1cnc2nnn(Cc3ccc4ncccc4c3)c2n1` [Example 131, (3S4R)-4-{[1-(quino-lin-6-yl-methyl)-1H-[123]tri-azolo[45-b]pyra-zin-6-yl]ami-no}tetrahydro-furan-3-ol], for which the Ki was 54 nM.

For the molecule `CCOCC(O)CNc1cnc2nnn(Cc3ccc4ncccc4c3)c2n1` (stereo not shown) [Example 132, 1-ethoxy-3-{[1-(quino-lin-6-yl-methyl)-1H-[123]tri-azolo[45-b]pyra-zin-6-yl]ami-no}propan-2-ol], the inhibitory constant (Ki) came to 8 nM.

Regarding `CC(C)(C)OC(=O)NC[C@H]1CCN(c2cnc3nnn(Cc4ccc5ncccc5c4)c3n2)C1` [Example 133, tert-butyl ({(3R)-1-[1-(quino-lin-6-yl-methyl)-1H-[1,2,3]tri-azolo[4,5-b]pyra-zin-6-yl]pyrro-lidin-3-yl}meth-yl)carbamate], the Ki was determined as 51 nM.

Take `CN[C@@H]1CCN(c2cnc3nnn(Cc4ccc5ncccc5c4)c3n2)C1` [Example 134, (3R)-N-methyl-1-[1-(quino-lin-6-yl-methyl)-1H-[1,2,3]tri-azolo[4,5-b]pyra-zin-6-yl]pyrro-lidin-3-amine]: the inhibition constant Ki is 7 nM.

Regarding `CNC1CCN(c2cnc3nnn(Cc4ccc5ncccc5c4)c3n2)CC1` [Example 135, N-methyl-1-[1-(quino-lin-6-yl-methyl)-1H-[1,2,3]tri-azolo[4,5-b]pyra-zin-6-yl]pipe-ridin-4-amine], the inhibitory constant (Ki) was 35 nM.

In the case of `NC[C@H]1CCN(c2cnc3nnn(Cc4ccc5ncccc5c4)c3n2)C1` [Example 136, 1-[(3R)-1-[1-(quino-lin-6-yl-methyl)-1H-[1,2,3]tri-azolo[4,5-b]pyra-zin-6-yl]pyrro-lidin-3-yl}methanamine], the Ki came to 30 nM.

Regarding `NCCNc1cnc2nnn(Cc3ccc4ncccc4c3)c2n1` [Example 137, N-[1-(quinolin-6-yl-methyl)-1H-[1,2,3]tri-azolo[4,5-b]pyra-zin-6-yl]eth-ane-1,2-diamine], the Ki turned out to be 27 nM.

For the molecule `CC(C)(CO)Nc1cnc2nnn(Cc3ccc4ncccc4c3)c2n1` [Example 139, 2-methyl-2-{[1-(quino-lin-6-yl-methyl)-1H-[1,2,3]tri-azolo[4,5-b]pyra-zin-6-yl]ami-no}propan-1-ol], the Ki turned out to be 21 nM.

Turning to `NC(=O)CNc1cnc2nnn(Cc3ccc4ncccc4c3)c2n1` [Example 140, N~2~-[1-(quino-lin-6-yl-methyl)-1H-[1,2,3]tri-azolo[4,5-b]pyra-zin-6-yl]glycinamide], the inhibitory constant (Ki) is 47 nM.

Turning to `CC(C)(N)CNc1cnc2nnn(Cc3ccc4ncccc4c3)c2n1` [Example 141, 2-methyl-N~1~-[1-(quino-lin-6-yl-methyl)-1H-[1,2,3]tri-azolo[4,5-b]pyra-zin-6-yl]pro-pane-1,2-diamine], the inhibition constant (Ki) stood at 6 nM.

For `c1cnc2ccc(Cn3nnc4ncc(OC5CCOCC5)nc43)cc2c1` [Example 142, 6-{[6-(tetra-hydro-2H-py-ran-4-yloxy)-1H-[1,2,3]tri-azolo[4,5-b]pyra-zin-1-yl]meth-yl}quinoline], the inhibition constant (Ki) was found to be 49 nM.

Turning to `c1cnc2ccc(Cn3nnc4ncc(NC5CCOCC5)nc43)cc2c1` [Example 143, 1-(quinolin-6-yl-methyl)-N-(tetra-hydro-2H-py-ran-4-yl)-1H-[1,2,3]tri-azolo[4,5-b]py-razin-6-amine], the inhibitory constant (Ki) stood at 9 nM.

For `FC(F)CNc1cnc2nnn(Cc3ccc4ncccc4c3)c2n1` [Example 144, N-(2,2-di-fluoroethyl)-1-(quino-lin-6-yl-methyl)-1H-[1,2,3]tri-azolo[4,5-b]pyra-zin-6-amine], the inhibition constant (Ki) came to 3 nM.

Turning to `c1cnc2ccc(Cn3nnc4ncc(NC5CCOC5)nc43)cc2c1` (stereo not shown) [Example 145, 1-(quinolin-6-yl-methyl)-N-(tetra-hydrofuran-3-yl)-1H-[1,2,3]tri-azolo[4,5-b]pyra-zin-6-amine], the Ki amounted to 5 nM.

`c1cnc2ccc(Cn3nnc4ncc(NC5CCOC5)nc43)cc2c1` (stereo not shown) [Example 146, 1-(quinolin-6-yl-methyl)-N-(tetra-hydrofuran-3-yl)-1H-[1,2,3]triazolo[4,5-b]pyra-zin-6-amine]: the Ki was 7 nM.

For `FC1CCN(C2CCN(c3cnc4nnn(Cc5ccc6ncccc6c5)c4n3)C2)CC1` (stereo not shown) [Example 147, 6-({6-[3-(4-fluoro-piperidin-1-yl)pyrro-lidin-1-yl]-1H-[1,2,3]tri-azolo[4,5-b]pyra-zin-1-yl}meth-yl)quinoline], the Ki was 34 nM.

Take `FC1(F)CCN(C2CCN(c3cnc4nnn(Cc5ccc6ncccc6c5)c4n3)C2)C1` (stereo not shown) [Example 149, 6-{[6-(3,3-di-fluoro-1,3′-bi-pyrrolidin-1′-yl)-1H-[1,2,3]tri-azolo[4,5-b]pyra-zin-1-yl]meth-yl}quinoline]: the Ki worked out at 15 nM.

With `OC1(C(F)(F)F)CCN([C@@H]2CCN(c3cnc4nnn(Cc5ccc6ncccc6c5)c4n3)C2)CC1` [Example 151, 1-{(3R)-1-[1-(quino-lin-6-yl-methyl)-1H-[1,2,3]tri-azolo[4,5-b]pyra-zin-6-yl]pyrro-lidin-3-yl}-4-(tri-fluoromethyl)pipe-ridin-4-ol], the Ki is 20 nM.

Consider `Fc1cc2ncccc2cc1Cn1nnc2ncc(NC3CCOC3)nc21` (stereo not shown) [Example 152, 1-[(7-fluoro-quinolin-6-yl)meth-yl]-N-(tetra-hydrofuran-3-yl)-1H-[1,2,3]tri-azolo[4,5-b]pyra-zin-6-amine], for which the Ki amounted to 1 nM.

Consider `c1cnc2ccc(Cn3nnc4ncc(N5CC[C@@H](N6CCOCC6)C5)nc43)cc2c1` [Example 153, 6-({6-[(3R)-3-morpho-lin-4-ylpyrro-lidin-1-yl]-1H-[1,2,3]tri-azolo[4,5-b]pyra-zin-1-yl}meth-yl)quinoline], for which the Ki worked out at 15 nM.

Consider `O=C1CCN(c2cnc3nnn(Cc4ccc5ncccc5c4)c3n2)C1` [Example 154, 1-[1-(quinolin-6-yl-methyl)-1H-[1,2,3]tri-azolo[4,5-b]pyra-zin-6-yl]pyrro-lidin-3-one], for which the Ki is 39 nM.

Turning to `CNCC1(O)CCN(c2cnc3nnn(Cc4ccc5ncccc5c4)c3n2)C1` (stereo not shown) [Example 155, 3-[(meth-ylamino)meth-yl]-1-[1-(quino-lin-6-yl-methyl)-1H-[1,2,3]tri-azolo[4,5-b]pyra-zin-6-yl]pyrro-lidin-3-ol], the Ki worked out at 43 nM.

For the molecule `CN(C)CC1(O)CCN(c2cnc3nnn(Cc4ccc5ncccc5c4)c3n2)C1` (stereo not shown) [Example 158, 3-[(di-methylamino)meth-yl]-1-[1-(quino-lin-6-yl-methyl)-1H-[1,2,3]tri-azolo[4,5-b]pyra-zin-6-yl]pyrro-lidin-3-ol], the Ki came out at 31 nM.

`CN(C)c1cnc2nnn(Cc3ccc4ncccc4c3)c2n1` [Example 159, N,N-dimethyl-1-(quino-lin-6-yl-methyl)-1H-[1,2,3]tri-azolo[4,5-b]pyra-zin-6-amine]: the Ki turned out to be 13 nM.

As for `CCN(CC)c1cnc2nnn(Cc3ccc4ncccc4c3)c2n1` [Example 160, N,N-diethyl-1-(quino-lin-6-yl-methyl)-1H-[1,2,3]tri-azolo[4,5-b]pyra-zin-6-amine], the Ki was found to be 13 nM.

Take `CCCCOc1cnc2nnn(Cc3ccc4ncccc4c3)c2n1` [Example 161, 6-[(6-butoxy-1H-[1,2,3]tri-azolo[4,5-b]pyra-zin-1-yl)meth-yl]quinoline]: the inhibition constant (Ki) was 14 nM.

Turning to `NC(=O)c1cnc2nnn(Cc3ccc4ncccc4c3)c2n1` [Example 162, 1-(quinolin-6-yl-methyl)-1H-[1,2,3]tri-azolo[4,5-b]pyra-zine-6-carbox-amide], the inhibition constant Ki stood at 17 nM.

On to `N#Cc1cnc2nnn(Cc3ccc4ncccc4c3)c2n1` [Example 163, 1-(quinolin-6-yl-methyl)-1H-[1,2,3]tri-azolo[4,5-b]pyra-zine-6-carbonitrile], for which the Ki stood at 25 nM.
